Data: patent publication US12708673B2, “Methods and compositions related to peptides and proteins with c-terminal elements” (Sanford Burnham Prebys Medical Discovery Institute, priority 2008, dated 2026)

Experiments:
[1] = test system: primary cells derived from normal mouse organs; assay: RPARPAR phage binding to primary cell suspensions of mouse organs at 4° C. ex vivo; assay type: cell-based; conditions: panel of normal mouse organs
Experimental: (§1) FIG. 15A: Binding of RPARPAR (SEQ ID NO:2) phage to the cultured cells at 4° C. in vitro. FIG. 15B: Binding of RPARPAR (SEQ ID NO:2) phage to primary cell suspensions of mouse organs at 4° C. ex vivo. FIGS. 15C and 15D: Tissue distribution of intravenously injected RPARPAR (SEQ ID NO:2) phage after 20 minutes of circulation time. FIG. 15C: Phage was quantified by titration, tissue binding is expressed as fold G7 phage. Statistical analysis was performed by Student's t-test (c). n=3; error bars indicate s.d.; double asterisk, p<0.01, triple asterisk, p<0.001. FIG. 15D (panels d and e): Immunofluorescence localization of T7 phage (light coloring) in lung sections of mice injected intravenously with RPARPAR (SEQ ID NO:2) (d) or G7 (e) phage. Widespread immunoreactivity is present in the lungs of mice injected with RPARPAR (SEQ ID NO:2) (arrowheads in d) but not G7 (with occasional labeling seen in vessels, arrows in e). Scale bar: 50 μm.
(§2) Phage display. For in vivo phage display, mice were injected intravenously with 10^10 plaque-forming units (pfu) of T7 phage followed by perfusion of the circulatory system and determination of the bound phage in target organs by titration. For cell binding studies on cultured cells (in vitro display) and organ-derived cell suspensions (ex vivo display), the cells were incubated with 10^9 pfu of phage at 4° C., washed, lysed, and quantified by titration. […]

[2] = Tissue distribution of intravenously injected phage in mice (titration, immunofluorescence); assay type: in vivo, mouse; conditions: intravenous
Experimental: as §1
Phage display. For in vivo phage display, mice were injected intravenously with 10^10 plaque-forming units (pfu) of T7 phage followed by perfusion of the circulatory system and determination of the bound phage in target organs by titration. For cell binding studies on cultured cells (in vitro display) and organ-derived cell suspensions (ex vivo display), the cells were incubated with 10^9 pfu of phage at 4° C., washed, lysed, and quantified by titration. Incubation at 37° C. followed by low pH wash (glycine-HCl, pH 2.5) was used to assess the amount of internalized phage.
In vivo phage homing studies in mice were carried out by injecting 10^10 pfu of T7 phage into tail vein and 10 minutes to 1 hour later, the mice were perfused with DMEM through the left ventricle of the heart. The organs of interest were collected, homogenized in 1% NP40 and the phage was quantified by titration.

PPC-1 cells = assay: Confocal immunofluorescence co-staining of phage/qdots with cellular markers in PPC-1 cells; assay type: cell-based, human
wild-type NRP-1 = molecular target: T1, wild-type NRP-1 (Homo sapiens, UniProt O14786); assay: Phage binding and internalization in M21 melanoma cells transiently transfected with wild-type NRP-1; assay type: cell-based
T1 construct: expressed in transfected cells; host or cells: M21 melanoma cells, transient transfection with lipofectamine; pcDNA3.1(+) construct, gift of Dr. Michael Klagsbrun
Experimental: (§3) FIGS. 18A-18C show the identification and validation of NRP-1 as the CendR receptor. FIG. 18A: Affinity chromatography of proteins interacting with RPARPAR (SEQ ID NO: 2) peptide. PPC-1 tumor tissue was extracted with a 200 mM glucopyranoside buffer, and the extract was incubated with RPARPAR-coated (SEQ ID NO:2) beads, followed by extensive washes, and elution with 2 mM free RPARPAR (SEQ ID NO:2) peptide. Note appearance of a 130 kDa band, identified by mass spectroscopy as NRP-1, starting in the fraction 3 of the eluate. Upper panel—a silver stained gel, lower panel—an immunoblot with anti-NRP-1 antibody. FIG. 18B: Binding of RPARPAR (SEQ ID NO:2) phage to M21 melanoma cells transiently transfected with wild-type NRP-1 (NRP-1), triple mutant NS346A-E348A-T349A NRP-1 (Mutant NRP-1), or parental pcDNA3.1plasmid (Vector), and to non-transfected M21 cells. FIG. 18C: (c, d), Confocal immunofluorescence images of NRP-1 and RPARPAR (SEQ ID NO:2) T7 phage in PPC-1 cells incubated with phage at 37° C. for 40 minutes (c) and 3 hours (d). The phage and NRP-1 co-localize extensively, but there appears to be a progressive decrease in the overlap (arrowheads in c and d) and appearance of structures positive for the phage only (arrows, d). (e) Immunostaining and confocal imaging of RPARPAR (SEQ ID NO:2) phage and NRP-1 in M21 cells transiently transfected with NRP-1. […]

[3] = molecular target: T2, triple mutant NS346A-E348A-T349A NRP-1 (Homo sapiens, UniProt O14786, E348A/S346A/T349A); assay: Phage binding to M21 melanoma cells transfected with NRP-1 binding pocket mutant; assay type: cell-based
T2 construct: expressed in transfected cells; host or cells: M21 melanoma cells, transient transfection with lipofectamine; site-directed mutant of the wild-type NRP-1 cDNA in pcDNA3.1(+)
Experimental: as §3

Du-145 = assay: RPARPAR phage binding to cultured cells at 4° C.; assay type: cell-based, human; conditions: Du-145 prostate cancer cells
Experimental: as §1, §2

PC-3 = assay: RPARPAR phage binding to cultured cells at 4° C.; assay type: cell-based, human; conditions: PC-3 prostate cancer cells
Experimental: as §1, §2

T2 sequence (O14786 22-923 S346A/E348A/T349A): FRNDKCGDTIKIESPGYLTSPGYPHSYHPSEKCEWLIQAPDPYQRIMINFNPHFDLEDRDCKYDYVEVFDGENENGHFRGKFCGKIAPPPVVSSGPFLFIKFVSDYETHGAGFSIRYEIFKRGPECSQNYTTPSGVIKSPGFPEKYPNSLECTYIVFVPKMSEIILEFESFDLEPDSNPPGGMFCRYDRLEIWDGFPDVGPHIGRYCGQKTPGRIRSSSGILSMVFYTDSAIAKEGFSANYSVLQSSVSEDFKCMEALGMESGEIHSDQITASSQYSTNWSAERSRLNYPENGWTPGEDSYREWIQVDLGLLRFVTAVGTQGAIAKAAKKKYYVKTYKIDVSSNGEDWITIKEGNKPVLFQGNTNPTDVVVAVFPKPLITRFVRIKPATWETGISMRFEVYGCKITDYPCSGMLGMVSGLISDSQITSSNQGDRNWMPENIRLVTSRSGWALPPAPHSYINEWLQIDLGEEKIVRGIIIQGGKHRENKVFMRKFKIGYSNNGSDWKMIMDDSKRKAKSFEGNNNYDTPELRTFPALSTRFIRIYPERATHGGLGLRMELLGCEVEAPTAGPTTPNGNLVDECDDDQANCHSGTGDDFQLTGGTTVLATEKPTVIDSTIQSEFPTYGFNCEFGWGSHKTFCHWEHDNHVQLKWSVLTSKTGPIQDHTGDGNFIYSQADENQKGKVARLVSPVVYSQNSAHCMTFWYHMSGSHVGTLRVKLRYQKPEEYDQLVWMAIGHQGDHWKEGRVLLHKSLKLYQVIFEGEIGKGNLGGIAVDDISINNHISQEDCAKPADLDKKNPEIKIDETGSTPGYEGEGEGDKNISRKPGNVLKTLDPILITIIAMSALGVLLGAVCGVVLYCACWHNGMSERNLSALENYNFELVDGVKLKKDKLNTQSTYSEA
T1 sequence (O14786 22-923): as the sequence (O14786 22-923 S346A/E348A/T349A) above, with A325S, A327E, A328T counted along it

## RPARPAR [RPARPAR phage]
[1]
  Phage binding: also bound
[2]
  Penetration into tissue parenchyma (lungs): able to penetrate into tissue parenchyma
  Phage immunoreactivity in lung sections: seen throughout the tissue
[2]; 20 minutes of circulation
  Accumulation of intravenously injected phage in the heart: to a lesser extent
  Accumulation of intravenously injected phage in the lungs: accumulated strongly
PPC-1 cells; 180 minutes
  Overlap of phage immunoreactivity with labeled cholera toxin subunit B: significant overlap
PPC-1 cells; LAMP-1, caveolin-1, calnexin, EEA-1, 60 minutes
  Overlap of internalized phage staining with subcellular compartment markers: did not show any clear overlap
wild-type NRP-1
  Phage binding and internalization by M21 cells with forced expression of NRP-1: capable of binding and internalizing
[3]
  Phage binding to M21 cells transfected with NRP-1 binding pocket mutant: did not confer
Du-145
  Phage binding: bound
PC-3
  Phage binding: bound
